Assay results from publication PMC10849753, “Antiproliferative activity of platinum(II) and copper(II) complexes containing novel biquinoxaline ligands” (Metallomics: Integrated Biometal Science, 2024).

Tested on: A172, LN229, U87, A549, Hela, PC-3, and MDA-231 cells
Assay: ROS production, DCFDA assay, all used cell lines
Format: cell-based, human
Conditions: positive control at 500 μM concentration
Protocol: The reactive oxygen species (ROS) formation on the selected cell lines upon exposure to the synthesized Cu(II) and Pt(II) complexes was investigated using the oxidation-sensitive dye, 2ʹ,7ʹ-dichlorofluorescein diacetate (DCFDA, #D6883 Sigma-Aldrich). The cell lines (A172, LN229, U87, HeLa, MDA-231, PC-3, A549, and CHO-K1) were seeded (6 × 10^3 cells/well) into the 96-well plates and incubated at 37°C and 5% CO2 for 24 h. After that, the Cu(II) and Pt(II) complexes, at a concentration range of 6.25 to 100 μM, were added to the cell monolayers. Hydrogen peroxide (H2O2), at concentrations from 50 to 500 μM, was utilized as a positive control. The following day, 5 μM of DCFDA in PBS was added to the cell monolayers and, then, the plate was incubated for 30–45 min. Consequently, the fluorescence intensity was measured with 485 nm excitation and 535 nm emission wavelengths using a microplate reader. The fluorescence values of each treatment were normalized to the negative control, including only growth medium without any treatment. The assay was repeated in triplicate.

`OO` [H2O2, Hydrogen peroxide, reference compound] gave an ROS generation of 3 fold.
